Laboratory results: patent EP3002286B1, “PREPARATION METHOD FOR POLYMORPHIC 6-(4-CHLOROPHENOXY)-TETRAZOLO[5,1-A]PHTHALAZINE AND USE THEREOF” (Jilin Yinglian Shangde Science and Technology Development …, priority 2014, dated 2015)

Tests used:
[1] = Stability of the crystalline forms (suspension balance), product form decided by XRPD; format: physicochemical; conditions: suspension time 2 days
Description: 20mg of crystalline form A and 20mg of crystalline form B were mixed, then placed into 1ml of methanol as a solvent, followed by mixing the resultant suspension with a magnetic stirrer at a rotational speed of 100 rpm for two days. And then, the suspension was filtered, and the product obtained was washed with a small amount of methanol, followed by drying at room temperature to give a solid, which was analyzed with XRPD to decide the crystalline form of the product. Other sample mixtures were also shown in Table 1 (see Table 1 for results). Table 1 Comparison of the stability of the crystalline forms (suspension balance)

[2] = system: maximal electroshock seizure; test: Maximal electroshock (MES) test; format: in vivo; conditions: mice; for ED50: Mus musculus, po; for ED50 / ED50, MES: p.o (intragastrically, i.g.), effect against electroshock seizure
Description: Maximal electroshock (MES) test is an ideal animal model for evaluating a compound having a potential anti-epileptic effect, and if the compound can be applied against the maximal electroshock seizure, then it is likely to be further developed as a drug for treatment of grand mal clinically. Each of the four crystalline forms of this invention was intragastrically (i.g.) administered to mice respectively, each median effective dose (ED50) for the effect against electroshock seizure was measured, and each anti-convulsion effect was assessed. Table 3 Comparison of the pharmacological effect of the anti-convulsion of the crystalline forms (mg/kg, p.o)

[3] = Comparison of solubility of the crystalline forms in water (UV absorbance of saturated solution); format: physicochemical; conditions: for Absorbance (Abs): saturated water solution (10mg in 1ml of water, stirred 1 hour, filtered), diluted 10 times, ultraviolet spectrophotometer; for Solubility relationship with respect to Form A: water, concentration ratio from absorbance according to the Lambert-Beer law
Description: 10mg of 6-(4-chlorophenoxy)-tetrazolo[5,1-a]phthalazine in each of the four crystalline forms was dissolved into 1ml of water, respectively, and the mixture was stirred for 1 hour so as to reach a solubility equilibrium with a supersaturated state being kept, and then the resultant mixture was filtered to give a clear and saturated water solution for each of the crystalline forms, respectively. Then, each solution was diluted 10 times, and absorbance thereof was measured using a ultraviolet spectrophotometer, and then the concentration ratio of 6-(4-chlorophenoxy)-tetrazolo[5,1-a]phthalazine in each solution could be determined according to the Lambert-Beer law, so as to obtain the solubility relationship among the four crystalline forms (see Table 2 for results). Table 2 Comparison of solubility of the crystalline forms

Row | Compound | ED50, MES [2] | Absorbance (Abs) [3] | Solubility relationship with respect to Form A [3] | also measured
1 | Clc1ccc(Oc2nn3nnnc3c3ccccc23)cc1 [Form A + Form B, 6-(4-chlorophenoxy)-tetrazolo[5,1-a]phthalazine] |  |  |  | Crystalline form of the product ([1]; solvent for suspension Methanol): Form A
2 | NC(=O)N1c2ccccc2C=Cc2ccccc21 [Carbamazepine, reference compound] |  |  |  | ED50 [2]: 15.4 mg/kg
3 | Clc1ccc(Oc2nn3nnnc3c3ccccc23)cc1 [Form A + Form D, 6-(4-chlorophenoxy)-tetrazolo[5,1-a]phthalazine] |  |  |  | Crystalline form of the product ([1]; solvent for suspension Nitromethane + n-hexane): Form A
4 | Clc1ccc(Oc2nn3nnnc3c3ccccc23)cc1 [Crystalline form B, 6-(4-chlorophenoxy)-tetrazolo[5,1-a]phthalazine] | 9.2 mg/kg | 0.279 Abs | 6.8 times | 
5 | Clc1ccc(Oc2nn3nnnc3c3ccccc23)cc1 [Form A + Form C, 6-(4-chlorophenoxy)-tetrazolo[5,1-a]phthalazine] |  |  |  | Crystalline form of the product ([1]; solvent for suspension Methyl ethyl ketone): Form A
6 | Clc1ccc(Oc2nn3nnnc3c3ccccc23)cc1 [Crystalline form D, 6-(4-chlorophenoxy)-tetrazolo[5,1-a]phthalazine] | 12.7 mg/kg | 0.134 Abs | 3.3 times | 
7 | Clc1ccc(Oc2nn3nnnc3c3ccccc23)cc1 [Crystalline form A, 6-(4-chlorophenoxy)-tetrazolo[5,1-a]phthalazine] |  | 0.0407 Abs |  | ED50 [2]: 15.6 mg/kg
8 | Clc1ccc(Oc2nn3nnnc3c3ccccc23)cc1 [Crystalline form C, 6-(4-chlorophenoxy)-tetrazolo[5,1-a]phthalazine] | 8.5 mg/kg | 0.326 Abs | 8.0 times | anti-convulsion effect (in words) ([2]; comparison among the crystalline forms, intragastrically administered): strongest anti-convulsion effect; water solubility (in words) ([3]; comparison among the crystalline forms): best water solubility
